Counter-ions that a name gives are not always drawn.
Key:
MCF7 = experiment: Antiproliferative activity (MTS) on MCF7; assay type: cell-based, human; conditions: Homo sapiens, MCF7, 72 hours; for inhibition at 10 µM: 10^-5 M, triplicate, read-out: percentage of inhibition of cell growth, MCF7; for IC50: averages of two independent values
Protocol: (§1) Antiproliferative activity was measured for different compounds according to the invention by analysis of cytoxicity at 10^−5M on diverse cancer cell lines in DMSO in triplicate. For certain molecules and certain lines, the same procedure was used for determining the IC50 values (the required concentration in μM for inhibiting by half the proliferation of the cells), by conducting cytotoxicity tests at concentrations from 0.005 μM to 100 μM in duplicate. The procedure is the following. The cells of the relevant line are sown in the suitable medium (see Table III) added with L-glutamine, with 10% (v/v) of fetal calf serum, 100 IU of penicillin, 100 μg/mL of streptomycin and 1.5 μg/mL of fungizone and maintained under 5% of CO2 at 37° C. 96-well plates are sown with the required number of cells per well (see Table III) in 200 μL of medium. 24 hours later, the chemical compounds to be investigated, dissolved in DMSO, are added and the media are maintained for 72 hours under these conditions with a set final concentration in DMSO (1%). The controls received an equal volume of DMSO. The number of viable cells is measured at 490 nm with the MTS reagent (Promega, Madison Wis.). The IC50s are calculated as the concentrations of compounds inducing 50% inhibition of cell proliferation.
(§2) Tables IV and V below indicate the percentage of inhibition of cell growth, i.e. the percentage of dead cells after treatment with a compound dose of 10^−5 M. The tests were conducted in triplicate.

HCT116 = experiment: Antiproliferative activity (MTS) on HCT116; assay type: cell-based; conditions: Homo sapiens, HCT-116; 10^-5 M, 72 hours, triplicate; read-out: percentage of inhibition of cell growth, HCT116
Protocol: as §1, §2

HepG2 = experiment: Antiproliferative activity (MTS) on HepG2; assay type: cell-based; conditions: Homo sapiens, 72 hours; for inhibition at 10 µM: 10^-5 M, triplicate, read-out: percentage of inhibition of cell growth, HepG2; for IC50: averages of two independent values
Protocol: as §1, §2

[1] = Toxicity test on mice (maximum tolerated dose, intravenous injection); conditions: mouse, in vivo; female NMRI mice, intravenous injection into the tail vein, observed two weeks
Protocol: (§3) A toxicity test was conducted on mice for the molecules D and E. These molecules therefore only differ by the substituted methyl group on thiazolidinedione. As a comparison, the test was also conducted by using Δ2TGZ. These analyses were conducted on female NMRI mice weighing 20-25 g. Groups of three mice were set up: a non-injected control batch, a batch receiving the solvent of the molecules to be tested (water PPI, polyethylene glycol 400, absolute ethanol mixture in proportions 5/3/2), three other batches receiving the molecules to be tested. The compounds were injected into the tail vein of mice anaesthetized beforehand. The animals were weighed before and then 24 hours and 48 hours after intravenous injection of the products at the different tested doses and then they were also weighed three times a week for two weeks. The behavior of the whole of the mice was observed before, and then one hour, two hours and three hours after the intravenous injection and then daily for two weeks. The compounds were first tested at the limit of their solubility.

[2] = test system: cryopreserved human hepatocytes (primary culture); experiment: Hepatocyte viability (MTT test) on suspended cryopreserved human hepatocytes; assay type: cell-based; conditions: 90 minutes incubation, relative to non treated cells, Table I campaign
Protocol: The hepatocyte viability corresponds to the percentage of surviving suspended human hepatocytes after 90 minutes of incubation with the compounds of the invention present at a concentration of […].
Hepatocyte viability was measured for different compounds according to the invention with cryopreserved human hepatocytes (primary culture) suspended and distributed in 96-well plates with a density of 0.1×10^6 cells per well, in a […] culture medium per well (DMEM+gentamycin (50 mg/L)+insulin (4 mg/L)+dexamethasone (1 μM)) in a CO2/air (5%/95%) humidified atmosphere at 37° C. After 30 minutes for attaining equilibrium, […] of culture medium containing the tested compounds (dissolved in DMSO) or of medium only containing DMSO (final concentration of 0.1%) were added with stirring at 900 rpm.
Cytotoxicity is evaluated with an MTT (Thiazolyl Blue Tetrazolium Bromide) test. The tested compounds or the DMSO are left to incubate for 90 minutes, and then 10 μL of MTT at 10 mg/10 mL are added per well for 30 mins. Next, the plates are centrifuged for 10 minutes at 2,000 g, the MTT is removed and some DMSO is added in an amount of 100 μL per well. The plates are gently shaked and then absorbance is measured at 595 nm by means of a spectrophotometric reader of micro-plates. The hepatocyte viability measured here corresponds to the percentage of surviving hepatocytes after 90 minutes of incubation with the compounds tested at a concentration of 100 μM, relatively to non treated cells.
The same tests were conducted for a concentration of compounds at 200 μM.
The tests were conducted in two distinct campaigns. In both cases, troglitazone (K) was used as a reference molecule.

MDA435 = experiment: Antiproliferative activity (MTS) on MDA435; assay type: cell-based; conditions: Homo sapiens, 10^-5 M, 72 hours, triplicate, read-out: percentage of inhibition of cell growth, MDA435
Protocol: as §1, §2

Mia-PaCa = experiment: Antiproliferative activity (MTS) on Mia-PaCa; assay type: cell-based; conditions: Homo sapiens, MIA PaCa-2, 72 hours; for inhibition at 10 µM: 10^-5 M, triplicate, read-out: percentage of inhibition of cell growth, Mia-PaCa; for IC50: averages of two independent values
Protocol: as §1, §2

LNCaP = experiment: Antiproliferative activity (MTS) on LNCaP; assay type: cell-based; conditions: Homo sapiens, 72 hours; for inhibition at 10 µM: 10^-5 M, triplicate, read-out: percentage of inhibition of cell growth, LNCaP; for IC50: averages of two independent values
Protocol: as §1, §2

MDA231 = experiment: Antiproliferative activity (MTS) on MDA231; assay type: cell-based, human; conditions: Homo sapiens, MDA-MB-231, 72 hours; for inhibition at 10 µM: 10^-5 M, triplicate, read-out: percentage of inhibition of cell growth, MDA231; for IC50: averages of two independent values
Protocol: as §1, §2

PC3 = experiment: Antiproliferative activity (MTS) on PC3; assay type: cell-based; conditions: Homo sapiens, PC-3; 10^-5 M, 72 hours, triplicate; read-out: percentage of inhibition of cell growth, PC3
Protocol: as §1, §2

female NMRI mice = experiment: Toxicity test on mice (maximum tolerated dose, intravenous injection); conditions: mouse, in vivo, iv
Protocol: as §3

`Cc1c(C)c2c(c(C)c1CCCCCCN)CCC(C)(COc1ccc(/C=C3\SC(=O)N(C)C3=O)cc1)O2` (racemic) [D, (±) 5-{4-[6-(6-amino-hexyl)-2,5,7,8-tetramethyl-chroman-2-ylmethoxy]-benzylidene}-3-methyl-thiazolidine-2,4-dione trifluoroacetate] gave an inhibition at 10 µM (MCF7) of 101%, an IC50 (MCF7) of 6.9 µM and an inhibition at 10 µM (HCT116) of 101%. For the same molecule, the inhibition at 10 µM (HepG2) was 100%, the IC50 (HepG2) was 7.9 µM and the MTD at 2 weeks [1] was 65.5 mg/kg. For the same molecule, the “Hepatocyte viability % (100 μM)” value [2] was 83%, the “Hepatocyte viability % (200 μM)” value [2] was 83% and the inhibition at 10 µM (MDA435) was 101%. The inhibition at 10 µM (Mia-PaCa) was 103%, the IC50 (Mia-PaCa) was 3.2 µM and the inhibition at 10 µM (LNCaP) was 88%. It also gave an IC50 (LNCaP) of 6.5 µM, an inhibition at 10 µM (MDA231) of 101% and an IC50 (MDA231) of 4.6 µM. It also gave an inhibition at 10 µM (PC3) of 92%.
In the case of `Cc1c(C)c2c(c(C)c1CCCCCCN)CCC(C)(COc1ccc(/C=C3\SC(=O)NC3=O)cc1)O2` (racemic) [E, (±) 5-{4-[6-(6-amino-hexyl)-2,5,7,8-tetramethyl-chroman-2-ylmethoxy]-benzylidene}thiazolidine-2,4-dione trifluoroacetate], the inhibition at 10 µM (MCF7) is reported as 97%, the IC50 (MCF7) is reported as 6.4 µM and the inhibition at 10 µM (HCT116) is reported as 93%. The inhibition at 10 µM (HepG2) was 87%, the IC50 (HepG2) was 3.1 µM and the MTD at 2 weeks [1] was 34 mg/kg. For the same molecule, the “Hepatocyte viability % (100 μM)” value [2] was 83%, the “Hepatocyte viability % (200 μM)” value [2] was 80% and the inhibition at 10 µM (MDA435) was 65%. It also gave an inhibition at 10 µM (Mia-PaCa) of 94%, an IC50 (Mia-PaCa) of 3.9 µM and an inhibition at 10 µM (LNCaP) of 53%. For the same molecule, the IC50 (LNCaP) was 5.1 µM, the inhibition at 10 µM (MDA231) was 92% and the IC50 (MDA231) was 4.7 µM. For the same molecule, the inhibition at 10 µM (PC3) was 40%.
With `Cc1c(C)c2c(c(C)c1O)CCC(C)(COc1ccc(C=C3SC(=O)NC3=O)cc1)O2` (stereo not drawn) [Δ2TGZ, reference compound] the maximum tolerated dose (female NMRI mice) was “less than 34 mg/kg”.
